Measurements reported in patent US9914730B2, “Azaquinazoline inhibitors of Atypical protein Kinase C” (Ignyta, Inc., priority 2012, dated 2018).

biological target: T1, full-length human PKCι (Homo sapiens, UniProt P41743); experiment: PKCι IC50 IMAP assay, full-length PKCι at 150 μM ATP; type: biochemical; details: read-out: IC50 in IMAP assay against full length PKCi at 150 μM ATP
T1 construct: Recombinant, full-length human PKCι expressed in Sf21 insect cells is also commercially available; purchased; host or cells: Sf21 insect cells
T1 sequence (P41743 1-596): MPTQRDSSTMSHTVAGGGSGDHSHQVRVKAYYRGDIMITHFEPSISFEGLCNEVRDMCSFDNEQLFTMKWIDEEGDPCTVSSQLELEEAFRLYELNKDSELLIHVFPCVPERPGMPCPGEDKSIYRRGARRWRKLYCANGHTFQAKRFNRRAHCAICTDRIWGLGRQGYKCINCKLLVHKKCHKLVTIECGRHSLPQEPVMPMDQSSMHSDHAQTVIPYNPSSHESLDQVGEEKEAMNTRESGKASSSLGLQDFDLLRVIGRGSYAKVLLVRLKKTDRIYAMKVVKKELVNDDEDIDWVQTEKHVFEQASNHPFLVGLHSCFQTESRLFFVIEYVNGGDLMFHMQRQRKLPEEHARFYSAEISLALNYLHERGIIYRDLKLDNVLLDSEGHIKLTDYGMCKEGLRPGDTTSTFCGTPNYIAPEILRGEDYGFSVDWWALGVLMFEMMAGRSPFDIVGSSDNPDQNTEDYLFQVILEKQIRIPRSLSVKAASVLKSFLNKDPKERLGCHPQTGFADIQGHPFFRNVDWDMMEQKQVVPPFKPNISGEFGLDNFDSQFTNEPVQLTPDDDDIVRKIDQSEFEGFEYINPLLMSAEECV
Summary of the method: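 Recombinant full-length human PKCι (Sf21-expressed, typically 15 pM) phosphorylated 100 nM 5FAM-labelled PKCε pseudosubstrate-derived peptide with 150 μM ATP (5× KM^APP) in 18 mM tris-HCl pH7.5, 9 mM MgCl2, EGTA, DTT, 4% DMSO. After 60 min at room temperature, IMAP binding reagent was added for 2 h and fluorescence polarisation read.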

IC50 | Structure (SMILES)
10 to 40 µM | c1cc(-c2nc(N[C@@H]3CCOC3)c3ccncc3n2)ccn1 [Example 42, N-[(3R)-oxolan-3-yl]-2-(pyridin-4-yl)-pyrido[3,4-d]-pyrimidin-4-amine]
1 to 10 µM | COc1cncc2nc(-c3ccncc3)nc(N3CCNC(C(F)(F)F)C3)c12 (stereo not shown) [Example 43, 1-[5-methoxy-2-(pyridin-4-yl)pyrido[3,4-d]-pyrimidin-4-yl]-3-(trifluoromethyl)-piperazine]
0.1 to 1 µM | COc1cncc2nc(-c3ccncc3)nc(N3CCN[C@@H](C)C3)c12 [Example 44, (3S)-1-[5-methoxy-2-(pyridin-4-yl)-pyrido[3,4-d]-pyrimidin-4-yl]-3-methylpiperazine]
1 to 10 µM | COc1cncc2nc(-c3ccncc3)nc(N3CC[C@@H](N)C3)c12 [Example 45, (3R)-1-[5-methoxy-2-(pyridin-4-yl)-pyrido[3,4-d]-pyrimidin-4-yl]-pyrrolidin-3-amine]
< 0.1 µM | COc1cncc2nc(-c3ccncc3)nc(N3CCN[C@@H](CO)C3)c12 [Example 46, [(2R)-4-[5-methoxy-2-(pyridin-4-yl)-pyrido[3,4-d]-pyrimidin-4-yl]-piperazin-2-yl]-methanol]
< 0.1 µM | COc1cncc2nc(-c3ccncc3)nc(NC[C@@H](N)[C@H](F)c3ccccc3)c12 [Example 47, N-[(2R,3R)-2-amino-3-fluoro-3-phenylpropyl]-5-methoxy-2-(pyridin-4-yl)pyrido[3,4-d]-pyrimidin-4-amine]
1 to 10 µM | COc1cncc2nc(-c3ccncc3)nc(N3CCN(CC(N)=O)[C@@H](Cc4ccccc4)C3)c12 [Example 48, 2-[(2S)-2-benzyl-4-[5-methoxy-2-(pyridin-4-yl)-pyrido[3,4-d]-pyrimidin-4-yl]-piperazin-1-yl]acetamide]
1 to 10 µM | COc1cncc2nc(-c3ccncc3)nc(NC[C@H](Cc3ccccc3)N(C)C)c12 [Example 49, [(2S)-1-{[5-methoxy-2-(pyridin-4-yl)-pyrido[3,4-d]-pyrimidin-4-yl]-amino}-3-phenylpropan-2-yl]dimethylamine]
10 to 40 µM | COc1cncc2nc(-c3ccncc3)nc(N3CC[C@H](O)C3)c12 [Example 50, (3S)-1-[5-methoxy-2-(pyridin-4-yl)-pyrido[3,4-d]-pyrimidin-4-yl]-pyrrolidin-3-ol]
1 to 10 µM | COc1cncc2nc(-c3ccncc3)nc(N3C[C@@H](C)N[C@@H](C)C3)c12 [Example 51, 1-[5-methoxy-2-(pyridin-4-yl)-pyrido[3,4-d]-pyrimidin-4-yl]-3,5-cis-dimethylpiperazine]
1 to 10 µM | COc1cncc2nc(-c3ccncc3)nc(N3CCN[C@H](C)C3)c12 [Example 52, (3R)-1-[5-methoxy-2-(pyridin-4-yl)-pyrido[3,4-d]-pyrimidin-4-yl]-3-methylpiperazine]
0.1 to 1 µM | COc1cncc2nc(-c3ccncc3)nc(N3CC[C@H](N)C3)c12 [Example 53, (3S)-1-[5-methoxy-2-(pyridin-4-yl)-pyrido[3,4-d]-pyrimidin-4-yl]-pyrrolidin-3-amine]
1 to 10 µM | COc1cncc2nc(-c3ccncc3)nc(N3CCNC(CF)C3)c12 (stereo not shown) [Example 54, 3-(fluoromethyl)-1-[5-methoxy-2-(pyridin-4-yl)-pyrido[3,4-d]-pyrimidin-4-yl]-piperazine]
1 to 10 µM | CC(C)NC(=O)C1CCN(c2nc(-c3ccncc3)nc3cnccc23)CC1 [Example 55, N-(propan-2-yl)-1-[2-(pyridin-4-yl)-pyrido[3,4-d]-pyrimidin-4-yl]-piperidine-4-carboxamide]
10 to 40 µM | NC(=O)N1CCN(c2nc(-c3ccncc3)nc3cnccc23)CC1 [Example 56, 4-[2-(pyridin-4-yl)-pyrido[3,4-d]-pyrimidin-4-yl]-piperazine-1-carboxamide]
10 to 40 µM | O=C(NC1CCCCC1)N1CCN(c2nc(-c3ccncc3)nc3cnccc23)CC1 [Example 57, N-cyclohexyl-4-[2-(pyridin-4-yl)-pyrido[3,4-d]-pyrimidin-4-yl]-piperazine-1-carboxamide]
0.1 to 1 µM | COc1cncc2nc(-c3ccncc3)nc(N3CCNC(CC#N)C3)c12 (stereo not shown) [Example 58, 2-{4-[5-methoxy-2-(pyridin-4-yl)-pyrido[3,4-d]-pyrimidin-4-yl]-piperazin-2-yl]-acetonitrile]
10 to 40 µM | FC(F)(F)C1CN(c2nc(-c3ccncc3)nc3cnccc23)CCN1 (stereo not shown) [Example 59, 1-[2-(pyridin-4-yl)-pyrido[3,4-d]-pyrimidin-4-yl]-3-(trifluoromethyl)-piperazine]
1 to 10 µM | FC(F)(F)C1CN(c2nc(-c3ccncc3)nc3c(Cl)nccc23)CCN1 (stereo not shown) [Example 60, 1-[8-chloro-2-(pyridin-4-yl)-pyrido[3,4-d]-pyrimidin-4-yl]-3-(trifluoromethyl)-piperazine]

IC50 | Structure (SMILES)
1 to 10 µM | CC[C@H]1CN(c2nc(-c3ccncc3)nc3cnccc23)CCN1 [Example 61, (3S)-3-ethyl-1-[2-(pyridin-4-yl)-pyrido[3,4-d]-pyrimidin-4-yl]-piperazine]
1 to 10 µM | CC(C)[C@H]1CN(c2nc(-c3ccncc3)nc3cnccc23)CCN1 [Example 62, (3S)-3-(propan-2-yl)-1-[2-(pyridin-4-yl)-pyrido[3,4-d]-pyrimidin-4-yl]-piperazine]
0.1 to 1 µM | COc1cncc2nc(-c3ccncc3F)nc(N3CCNCC3)c12 [Example 63, 1-[2-(3-fluoropyridin-4-yl)-5-methoxypyrido-[3,4-d]pyrimidin-4-yl]piperazine]
10 to 40 µM | c1cc(-c2nc(N3CCN4CCC[C@@H]4C3)c3ccncc3n2)ccn1 [Example 64, 4-{4-[(8aR)-octahydropyrrolo-[1,2-a]piperazin-2-yl]pyrido[3,4-d]-pyrimidin-2-yl}-pyridine]
10 to 40 µM | Fc1cnccc1-c1nc(N2CCNCC2)c2ccncc2n1 [Example 65, 1-[2-(3-fluoropyridin-4-yl)pyrido[3,4-d]-pyrimidin-4-yl]-piperazine]
10 to 40 µM | Fc1cnccc1-c1nc(N2CCNC(C(F)(F)F)C2)c2ccncc2n1 (stereo not shown) [Example 66, 1-[2-(3-fluoropyridin-4-yl)pyrido[3,4-d]-pyrimidin-4-yl]-3-(trifluoromethyl)-piperazine]
10 to 40 µM | c1cc(-c2nc(N3CCC4NCC[C@H]4C3)c3ccncc3n2)ccn1 (stereo partly drawn) [Example 67, 4-{4-[(3aS)-octahydro-1H-pyrrolo[3,2-c]-pyridin-5-yl]-pyrido[3,4-d]-pyrimidin-2-yl}-pyridine]
0.1 to 1 µM | Clc1nccc2c(N3CCN[C@@H](Cc4ccccc4)C3)nc(-c3ccncc3)nc12 [Example 68, (3S)-3-benzyl-1-[8-chloro-2-(pyridin-4-yl)pyrido[3,4-d]-pyrimidin-4-yl]-piperazine]
10 to 40 µM | c1ccc(C2CN(c3nc(-c4ccncc4)nc4cnccc34)CCN2)cc1 (stereo not shown) [Example 69, 3-phenyl-1-[2-(pyridin-4-yl)-pyrido[3,4-d]-pyrimidin-4-yl]-piperazine]
1 to 10 µM | COc1cncc2nc(-c3ccncc3)nc(N3CCOCC3)c12 [Example 70, 4-[5-methoxy-2-(pyridin-4-yl)-pyrido[3,4-d]-pyrimidin-4-yl]-morpholine]
1 to 10 µM | C#CC1CN(c2nc(-c3ccncc3)nc3cnccc23)CCN1 (stereo not shown) [Example 71, 3-ethynyl-1-[2-(pyridin-4-yl)-pyrido[3,4-d]-pyrimidin-4-yl]-piperazine]
1 to 10 µM | COc1cncc2nc(-c3ccncc3)nc(N3CCOC(Cc4ccccc4)C3)c12 (stereo not shown) [Example 72, 2-benzyl-4-[5-methoxy-2-(pyridin-4-yl)pyrido[3,4-d]-pyrimidin-4-yl]-morpholine]
10 to 40 µM | OCC1CN(c2nc(-c3ccncc3)nc3c(Cl)nccc23)C1 [Example 73, {1-[8-chloro-2-(pyridin-4-yl)-pyrido[3,4-d]-pyrimidin-4-yl]-azetidin-3-yl}-methanol]
< 0.1 µM | COc1cncc2nc(-c3ccncc3)nc(N3CCN[C@@H](C(F)c4ccccc4)C3)c12 (stereo partly drawn) [Example 74, (3R)-3-[fluoro(phenyl)-methyl]-1-[5-methoxy-2-(pyridin-4-yl)-pyrido[3,4-d]-pyrimidin-4-yl]-piperazine]
1 to 10 µM | OC1CCN(c2nc(-c3ccncc3)nc3c(Cl)nccc23)CC1 [Example 75, 1-[8-chloro-2-(pyridin-4-yl)-pyrido[3,4-d]-pyrimidin-4-yl]-piperidin-4-ol]
< 0.1 µM | COc1cncc2nc(-c3ccncc3)nc(N3CCN[C@@H](C(F)c4ccccc4)C3)c12 (stereo partly drawn) [Example 76, (3R)-3-[fluoro(phenyl)-methyl]-1-[5-methoxy-2-(pyridin-4-yl)-pyrido[3,4-d]-pyrimidin-4-yl]-piperazine]
1 to 10 µM | O=CN[C@H](CNc1nc(-c2ccncc2)nc2cnccc12)Cc1ccccc1 [Example 78, N—[(S)-1-Benzyl-2-(2-pyridin-4-yl-pyrido[3,4-d]pyrimidin-4-ylamino)-ethyl]-formamide]
10 to 40 µM | CC(=O)N[C@H](CNc1nc(-c2ccncc2)nc2cnccc12)Cc1ccccc1 [Example 79, N—[(S)-1-Benzyl-2-(2-pyridin-4-yl-pyrido[3,4-d]pyrimidin-4-ylamino)-ethyl]-acetamide]
